This is an account of results in PubChem BioAssay (NCI).

Several values for one entry are separate records, joined by “and”; a condition that tells them apart may be missing. Equal entries are not always repeated.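 Assay format: 96-well plates, 48-hour exposure. At the GI50, growth is halved. TGI: total growth inhibition.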 Some results are limits rather than exact numbers.

Common to all, as to test: NCI tumour cell line growth inhibition, 48 h
Assay [1] deals with UO-31 renal.
Assay [2] concerns SR leukemia.
In assay [3] the test system is U251 CNS.
Assay [4] has as its system SNB-75 CNS.
In assay [5] the test system is SF-295 CNS.
For assay [6], the system named is OVCAR-3 ovarian.
In assay [7] the test system is LXFL 529 NSCLC.
In assay [8] the test system is KM20L2 colon.
Assay [9] relates to SK-MEL-2 melanoma.
The test system of assay [10] is MCF7 breast.

Take `O=C(NC1C2CC3CC(C2)CC1C3)c1cc(/C=C/c2ccccc2)[nH]c(=S)n1` (centres undefined): the TGI in assay [1], in assay [2], in assay [3], in [4], in [5] and in assay [6] was above 100 µM in each case. The TGI in assay [7], in [8] and in [9] was above 100 µM in each case.

Regarding `CC1=C[P+](Cc2ccccc2)(c2ccccc2)CC1` (centres undefined), the TGI in [1], in assay [2], in assay [3], in [4], in assay [5] and in assay [6] was above 100 µM in each case. The TGI in [7], in [8] and in assay [9] was above 100 µM throughout. Also, the GI50 in [3] is 23.1 µM and 58.1 µM and 9.71 µM.

For the molecule `CCOc1ccccc1NC(=O)CCc1n[nH]c(=S)o1`, the TGI in [1], in [2], in assay [3], in assay [4], in assay [5] and in assay [6] was above 100 µM throughout. The TGI in [7], in [8] and in assay [9] was above 100 µM in each case.

`O=C1c2ccccc2C(=O)N1C/C=C/CO`: the TGI in assay [1], in assay [2], in assay [3], in assay [4], in [6] and in assay [7] was above 100 µM each time. For the same molecule, the TGI in [8] and in assay [9] was above 100 µM in each case.

As for `Clc1cc2n[se]nc2cc1Cl`, the TGI in assay [1], in assay [2], in [3], in assay [4], in assay [5] and in [7] was above 100 µM in each case. Further, the TGI in assay [8] and in assay [9] was above 100 µM throughout.

As for `CC[C@@H]1C[C@H]2CC3c4[nH]c5ccc(O)cc5c4CCN(C2)C31`, the TGI in assay [1], in assay [2], in assay [3], in [4], in assay [5] and in [6] was above 100 µM throughout. Further, the TGI in assay [7], in [8] and in [9] was above 100 µM throughout.

Turning to `Fc1cccc2c1cc1ccc3cccc4ccc2c1c34`, the TGI in assay [1], in [2], in assay [3], in assay [4], in assay [5] and in [6] was above 100 µM in each case. For the same molecule, the TGI in assay [7], in assay [8] and in assay [9] was above 100 µM in each case.

`C[n+]1ccc(-c2c3nc(c(-c4cc[n+](C)cc4)c4ccc([n-]4)c(-c4cc[n+](C)cc4)c4nc(c(-c5cc[n+](C)cc5)c5ccc2[n-]5)C=C4)C=C3)cc1.[I-].[Zn+2]`: the GI50 in [1] was 17.3 µM; in assay [2], 32.2 µM; in assay [3], 22 µM; in assay [4] it was 12.5 µM; in assay [5], 38 µM; in assay [6], 7.02 µM. Further, the GI50 in assay [7] is 20.1 µM; in [8] it was 23.1 µM; in assay [9], 19.1 µM. Besides, the TGI in [1] is 38.4 µM; in assay [2], 94.7 µM; in assay [3] it was 52.8 µM; in assay [4], 32.8 µM; in [5], above 100 µM; in assay [6], 28.1 µM. Also, the TGI in assay [7] was 43 µM; in assay [8], above 100 µM; in assay [9] it was 47.3 µM.

`OC1C2CCC1C1C3C=CC(C3)C21` (centres undefined): the TGI in [1], in assay [2], in [3], in assay [4], in assay [5] and in assay [6] was above 100 µM each time. Moreover, the TGI in assay [7], in assay [8] and in assay [9] was above 100 µM each time.

As for `c1ccc2c(c1)[nH]c1c2nc2ncccn21`, the TGI in [1], in assay [2], in assay [3], in assay [4], in assay [5] and in [7] was above 100 µM throughout. Moreover, the TGI in assay [8] and in assay [9] was above 100 µM in each case.

As for `CC(C)(C)OC(=O)NC(CO)c1cccc(OCc2ccccc2)c1` (centres undefined), the TGI in assay [1], in [2], in assay [3], in [4], in assay [5] and in assay [6] was above 100 µM throughout. For the same molecule, the TGI in assay [7], in assay [8] and in assay [9] was above 100 µM throughout.

As to `N#C/C(=C/Sc1ccccc1)C(=O)O`, the TGI in [1] was 41.4 µM; in assay [2] it was above 100 µM; in assay [3] it was 45.9 µM; in assay [4] it was 55.9 µM; in assay [5], above 100 µM; in [6], 78.5 µM. For the same molecule, the TGI was above 100 µM in assay [7], 91.2 µM in assay [8] and 72.3 µM in assay [9].

For the molecule `COc1ccc2nc3ccccc3c(NCCCN(C)CCCl)c2c1`, the TGI in [1] was 2.67 µM; in assay [2], 0.146 µM; in [3], 1.71 µM; in assay [4], 1.47 µM; in assay [5], 2.44 µM; in [6], 2.07 µM. Besides, the TGI was determined as 1.53 µM in assay [7], 1.46 µM in assay [10], 2.5 µM in [8] and 1.81 µM in assay [9].

With `O=c1oc(=O)c2oc3ccccc3oc1=2`, the TGI in assay [1], in assay [2], in [3], in assay [4], in assay [5] and in [6] was above 100 µM in each case. Moreover, the TGI in assay [7], in [8] and in assay [9] was above 100 µM throughout.
